The experiment has as its target T1, recombinant human NaV1.8 stably transfected HEK cells (Homo sapiens, UniProt Q9Y5Y9).
T1 construct: expressed in transfected cells; host or cells: HEK cells, stably transfected
Briefly: Compound profiling on NaV1.8, human NaV1.8 cell line, SyncroPatch384PE automated patch clamp assay (Example 102, first set of compounds, Table 16). Type of experiment: cell-based. The note with it: human NaV1.8 HEK cells, Table 16 (first set of compounds). The protocol: Compound Profiling on NaV1.8—Human NaV1.8 Cell Line—SyncroPatch384PE Assay
Compounds were tested on recombinant human NaV1.8 stably transfected HEK cells using the SyncroPatch384PE system, an automated patch clamp device. Cells were cultured at 37° C./5% CO2 in DMEM medium supplemented with GlutaMAX I, NEAA 1%, FBS 10% and seeded in T175 flasks. Cells were cultured at 30° C. one day prior to recording sodium currents. On the day of the recordings, cells were detached with 0.05% Trypsin-EDTA, resuspended in serum free DMEM medium and placed into the SyncroPatch384PE 6° C. pre-cooled cell hotel and shaken at 200 rpm. Intracellular solution (IC) contained, in mM: 10, CsCl; 110, CsF; 20, EGTA; 10, HEPES. Extracellular solution (EC) contained, in mM: 140, NaCl; 4, KCl; 5, Glucose; 10, HEPES; 2, CaCl2; 1, MgCl2. Washing solution contained, in mM: 40, NMDG; 100, NaCl; 4, KCl; 10, Glucose; 10, HEPES; 5, CaCl2; 1, MgCl2.
Compounds were tested in triplicate in 0.1% DMSO and 0.030% Pluronic Acid. Compounds were diluted 1:3 in EC solution to create a 10-point concentration response curve, spanning a final concentration range from 20-0.001 μM in the assay plate. Each plate contained tetracaine and another tool compound as positive controls. Up to 8 compounds were tested on one plate. 250 μM tetracaine and 0.1% DMSO were used as high and low controls, respectively. Whole cell patch clamp recordings were conducted according to Nanion's standard procedure for SyncroPatch384PE®. Cells were held at a holding potential of −120 mV. A depolarization step to 10 mV for 30 ms was applied (P1 measurement), followed by a hyperpolarization step to −100 mV for 100 ms. An inactivation step at −40 mV for 10 sec was applied before stepping to −100 mV for 20 ms, followed by a step to 10 mV for 30 ms (P2 measurement) and then back to −100 mV for 30 ms. Sweep interval was 15 sec with a sampling rate of 10 kHz. Following establishment of the whole-cell configuration in EC, two washing steps with reference buffer were performed to stabilize the baseline. Compounds were then applied by the SynchroPatch into each well and the current was recorded for five minutes in EC, followed by application of tetracaine to achieve full block at the end of the experiment. The potency of the compounds was assessed on two read-outs, resting state block (P1 measurement) or inactivated state block (P2 measurement) to obtain IC50 values. Values were normalized to high (tetracaine) and low (DMSO) controls. The IC50 values are listed in Table 16 as follows: “A” represents an IC50 less than or equal to 20 nM, “B” represents an IC50 greater than 20 nM to less than or equal to 40 nM, “C” represents an IC50 greater than 40 nM to less than or equal to 200 nM, “D” represents an IC50 greater than 200 nM to less than or equal to 500 nM.
On the technique in general: Patch clamp records ionic current or voltage across a cell membrane.

The mark [1] stands for this setting: inactivated state block (P2 measurement), read-out: P2IC50.
Setting [2] is: resting state block (P1 measurement), read-out: P1IC50.

The structures appear in SMILES notation. Read-outs that look alike come from different tables or passages of the source.

T1 sequence (Q9Y5Y9 whole entry): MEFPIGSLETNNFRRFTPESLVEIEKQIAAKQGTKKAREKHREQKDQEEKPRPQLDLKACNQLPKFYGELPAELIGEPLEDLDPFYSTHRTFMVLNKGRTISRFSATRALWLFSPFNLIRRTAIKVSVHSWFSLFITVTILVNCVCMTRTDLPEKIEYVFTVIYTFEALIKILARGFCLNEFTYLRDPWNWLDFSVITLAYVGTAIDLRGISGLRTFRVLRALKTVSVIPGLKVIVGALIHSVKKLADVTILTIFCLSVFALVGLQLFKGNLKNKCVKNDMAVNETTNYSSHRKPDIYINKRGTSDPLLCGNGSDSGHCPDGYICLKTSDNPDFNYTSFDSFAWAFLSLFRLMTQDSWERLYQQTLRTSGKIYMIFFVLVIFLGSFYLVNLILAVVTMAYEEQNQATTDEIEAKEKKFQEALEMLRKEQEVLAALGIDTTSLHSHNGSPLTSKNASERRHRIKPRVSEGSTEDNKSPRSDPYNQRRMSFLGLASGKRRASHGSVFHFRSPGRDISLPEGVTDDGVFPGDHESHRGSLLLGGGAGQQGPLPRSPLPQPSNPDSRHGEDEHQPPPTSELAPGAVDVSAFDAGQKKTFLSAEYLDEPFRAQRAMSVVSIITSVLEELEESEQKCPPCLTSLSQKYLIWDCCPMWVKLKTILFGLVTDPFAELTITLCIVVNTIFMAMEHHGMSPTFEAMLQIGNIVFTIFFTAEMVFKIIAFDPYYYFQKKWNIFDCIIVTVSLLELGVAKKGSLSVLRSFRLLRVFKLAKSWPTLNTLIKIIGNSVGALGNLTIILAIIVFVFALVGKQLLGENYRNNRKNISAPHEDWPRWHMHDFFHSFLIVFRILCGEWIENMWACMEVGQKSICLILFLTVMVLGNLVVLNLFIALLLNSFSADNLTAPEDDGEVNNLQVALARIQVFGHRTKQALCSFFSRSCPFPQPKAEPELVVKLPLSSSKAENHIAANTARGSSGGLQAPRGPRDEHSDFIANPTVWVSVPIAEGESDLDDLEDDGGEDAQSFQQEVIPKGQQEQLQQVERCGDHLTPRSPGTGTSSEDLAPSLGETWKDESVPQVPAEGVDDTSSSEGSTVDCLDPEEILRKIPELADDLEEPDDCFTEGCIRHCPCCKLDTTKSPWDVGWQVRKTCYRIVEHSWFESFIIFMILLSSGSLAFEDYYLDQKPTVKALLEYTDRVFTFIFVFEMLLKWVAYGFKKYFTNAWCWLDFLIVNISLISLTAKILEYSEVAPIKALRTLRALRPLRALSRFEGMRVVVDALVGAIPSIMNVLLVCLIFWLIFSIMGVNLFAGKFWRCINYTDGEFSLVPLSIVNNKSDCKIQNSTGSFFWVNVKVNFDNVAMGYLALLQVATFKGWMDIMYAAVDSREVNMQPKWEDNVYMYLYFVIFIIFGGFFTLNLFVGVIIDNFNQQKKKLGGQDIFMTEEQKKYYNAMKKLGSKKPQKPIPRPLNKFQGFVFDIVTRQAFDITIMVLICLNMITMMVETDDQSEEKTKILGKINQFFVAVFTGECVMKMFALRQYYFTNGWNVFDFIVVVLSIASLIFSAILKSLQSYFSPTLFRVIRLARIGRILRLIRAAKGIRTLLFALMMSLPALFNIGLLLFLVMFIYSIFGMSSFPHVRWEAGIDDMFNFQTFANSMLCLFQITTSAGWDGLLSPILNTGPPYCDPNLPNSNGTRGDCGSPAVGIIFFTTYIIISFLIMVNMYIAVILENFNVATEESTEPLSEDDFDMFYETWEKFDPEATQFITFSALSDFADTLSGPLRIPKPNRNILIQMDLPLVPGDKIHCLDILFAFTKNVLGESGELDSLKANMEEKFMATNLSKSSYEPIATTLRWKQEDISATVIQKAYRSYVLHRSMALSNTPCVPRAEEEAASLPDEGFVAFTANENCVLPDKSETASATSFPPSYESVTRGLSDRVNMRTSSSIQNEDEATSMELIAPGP

As to `Cc1nc(OC2CCC2)ccc1Oc1nnc(C(F)(F)F)c(C)c1C(=O)Nc1cccc(S(C)(=N)=O)c1` (single isomer, unassigned) [Compound 1499, 3-((6-cyclobutoxy-2-methylpyridin-3-yl)oxy)-5-methyl-N-(3-(S-methylsulfonimidoyl)phenyl)-6-(trifluoromethyl)pyridazine-4-carboxamide], the IC50 is, setting by setting: under setting [1], 40 to 200 nM; under setting [2], 40 to 200 nM.

Regarding `Cc1c(C(F)(F)F)nnc(Oc2ccc(OC(C)C)c(F)c2F)c1C(=O)Nc1cccc(S(C)(=N)=O)c1` (single isomer, unassigned) [Compound 1502, 3-(2,3-difluoro-4-isopropoxyphenoxy)-5-methyl-N-(3-(S-methylsulfonimidoyl)phenyl)-6-(trifluoromethyl)pyridazine-4-carboxamide], the IC50 reads like this: under setting [1], not above 20 nM; under setting [2], not above 20 nM.

In the case of `COc1ccc(Oc2nnc(C(F)(F)F)c(C)c2C(=O)Nc2cccc(S(C)(=N)=O)c2)c(C)c1F` (single isomer, unassigned) [Compound 1505, 3-(3-fluoro-4-methoxy-2-methylphenoxy)-N-{3-[imino(methyl)oxo-λ^6-sulfanyl]phenyl}-5-methyl-6-(trifluoromethyl)pyridazine-4-carboxamide], the IC50 runs as follows: under setting [1], not above 20 nM; under setting [2], not above 20 nM.

As for `COc1ccc(Oc2nnc(C(F)(F)F)c(C)c2C(=O)Nc2cccc(S(C)(=N)=O)c2)c(C)n1` (single isomer, unassigned) [Compound 1508, N-{3-[imino(methyl)oxo-λ^6-sulfanyl]phenyl}-3-[(6-methoxy-2-methylpyridin-3-yl)oxy]-5-methyl-6-(trifluoromethyl)pyridazine-4-carboxamide], the IC50 reads like this: under setting [1], 40 to 200 nM; under setting [2], 40 to 200 nM.

In the case of `Cc1c(C(F)(F)F)nnc(Oc2ccc(OC(F)F)c(F)c2F)c1C(=O)Nc1cccc(S(C)(=N)=O)c1` (single isomer, unassigned) [Compound 1511, 3-[4-(difluoromethoxy)-2,3-difluorophenoxy]-N-{3-[imino(methyl)oxo-λ^6-sulfanyl]phenyl}-5-methyl-6-(trifluoromethyl)pyridazine-4-carboxamide], the IC50 was not above 20 nM under setting [1] and not above 20 nM under setting [2].

With `Cc1c(C(F)(F)F)nnc(Oc2ccc(OC(F)F)c(F)c2F)c1C(=O)Nc1cccc(S(C)(=N)=O)c1` (single isomer, unassigned) [Compound 1512, 3-[4-(difluoromethoxy)-2,3-difluorophenoxy]-N-{3-[imino(methyl)oxo-λ^6-sulfanyl]phenyl}-5-methyl-6-(trifluoromethyl)pyridazine-4-carboxamide], the IC50 under setting [2] is not above 20 nM.

For `Cc1nc(F)ccc1Oc1ncc(C(F)(F)F)cc1C(=O)Nc1cccc([S@](C)(=N)=O)c1` (single isomer, unassigned) [Compound 1593], the IC50 by setting is: under setting [1], not above 20 nM; under setting [2], not above 20 nM.

`Cc1nc(F)ccc1Oc1ncc(C(F)(F)F)cc1C(=O)Nc1cccc([S@@](C)(=N)=O)c1` (single isomer, unassigned) [Compound 1594]: the IC50 reads like this: under setting [1], 40 to 200 nM; under setting [2], 40 to 200 nM.

In the case of `CS(=N)(=O)c1cccc(NC(=O)c2cc(C(F)(F)F)cnc2Oc2cccnc2OC(F)(F)F)c1` (single isomer, unassigned) [Compound 1642], the IC50 was not above 20 nM under setting [1] and not above 20 nM under setting [2].

On to `CS(=N)(=O)c1cccc(NC(=O)c2cc(C(F)(F)F)cnc2Oc2cccnc2OC(F)(F)F)c1` (single isomer, unassigned) [Compound 1643], for which the IC50 under setting [2] was not above 20 nM.

Consider `Cc1c(Oc2ncc(C(F)(F)F)cc2C(=O)Nc2cccc(S(C)(=N)=O)c2)ccc(OC(F)(F)F)c1F` (single isomer, unassigned) [Compound 1714], for which the IC50 is, setting by setting: under setting [1], not above 20 nM; under setting [2], not above 20 nM.

As to `Cc1c(Oc2ncc(C(F)(F)F)cc2C(=O)Nc2cccc(S(C)(=N)=O)c2)ccc(OC(F)(F)F)c1F` (single isomer, unassigned) [Compound 1715], the IC50 under setting [2] was not above 20 nM.

In the case of `COc1cc(C#N)ccc1Oc1nnc(C(F)(F)F)c(C)c1C(=O)Nc1cccc(S(C)(=O)=O)c1` [Compound 4], the IC50 was not above 20 nM under setting [1] and not above 20 nM under setting [2].

With `CSc1cccc(NC(=O)c2c(Oc3ccc(C#N)cc3C)nnc(C(F)(F)F)c2C)c1` [Compound 14, 3-(4-Cyano-2-methylphenoxy)-5-methyl-N-[3-(methylsulfanyl)phenyl]-6-(trifluoromethyl)pyridazine-4-carboxamide], the IC50 lay in the range of 200 to 500 nM under setting [1] and 200 to 500 nM under setting [2].

With `Cc1cc(F)ccc1Oc1nnc(C(F)(F)F)c(C)c1C(=O)Nc1cccc(S(C)(=N)=O)c1` (centres unmarked) [Compound 20, 3-(4-Fluoro-2-methylphenoxy)-5-methyl-N-(3-(S-methylsulfonimidoyl)phenyl)-6-(trifluoromethyl)pyridazine-4-carboxamide], the IC50 was 20 to 40 nM under setting [1] and not above 20 nM under setting [2].

For `Cc1c(C(F)(F)F)nnc(Oc2ccc(C#N)cc2)c1C(=O)Nc1cccc(S(C)(=N)=O)c1` (centres unmarked) [Compound 21], the IC50 under setting [1] was 40 to 200 nM and the IC50 under setting [2] is 20 to 40 nM.

Take `Cc1c(C(F)(F)F)nnc(Oc2ccc(Cl)cc2)c1C(=O)Nc1cccc(S(C)(=N)=O)c1` (centres unmarked) [Compound 22]: the IC50 runs as follows: under setting [1], 40 to 200 nM; under setting [2], 20 to 40 nM.

Turning to `COc1c(Oc2nnc(C(F)(F)F)c(C)c2C(=O)Nc2cccc(S(C)(=N)=O)c2)ccc(F)c1F` (centres unmarked) [Compound 23], the IC50 is 20 to 40 nM under setting [1] and not above 20 nM under setting [2].

Consider `COc1cc(C#N)ccc1Oc1nnc(C(F)(F)F)c(C)c1C(=O)Nc1cccc(S(C)(=N)=O)c1` (centres unmarked) [Compound 25], for which the IC50 reads like this: under setting [1], not above 20 nM; under setting [2], not above 20 nM.

Consider `Cc1cccc(Cl)c1Oc1nnc(C(F)(F)F)c(C)c1C(=O)Nc1ccc(C(N)=O)cc1` [Compound 1401], for which the IC50 reads like this: under setting [1], 200 to 500 nM; under setting [2], 200 to 500 nM.

Take `Cc1cc(Br)ccc1Oc1nnc(C(F)(F)F)c(C)c1C(=O)Nc1ccc(C(N)=O)cc1` [Compound 1402]: the IC50 runs as follows: under setting [1], 20 to 40 nM; under setting [2], 20 to 40 nM.

For `COc1cc(Cl)ccc1Oc1nnc(C(F)(F)F)c(C)c1C(=O)Nc1ccc(C(N)=O)cc1` [Compound 1403], the IC50 was 20 to 40 nM under setting [1] and 20 to 40 nM under setting [2].

Regarding `Cc1c(C(F)(F)F)nnc(Oc2ccc(Cl)cc2F)c1C(=O)Nc1ccc(C(N)=O)cc1` [Compound 1404], the IC50 runs as follows: under setting [1], 40 to 200 nM; under setting [2], 40 to 200 nM.

For `COc1cc(C#N)ccc1Oc1nnc(C(F)(F)F)c(C)c1C(=O)Nc1ccc(C(N)=O)cc1` [Compound 1405], the IC50 by setting is: under setting [1], not above 20 nM; under setting [2], not above 20 nM.

`Cc1cc(F)ccc1Oc1nnc(C(F)(F)F)c(C)c1C(=O)Nc1cccc(C(N)=O)c1` [Compound 1406]: the IC50 under setting [1] is 40 to 200 nM and the IC50 under setting [2] was in the range of 40 to 200 nM.

In the case of `Cc1cc(F)ccc1Oc1nnc(C(F)(F)F)c(C)c1C(=O)Nc1cc(C(N)=O)cc(S(C)(=O)=O)c1` [Compound 1407], the IC50 was 200 to 500 nM under setting [1] and 200 to 500 nM under setting [2].

`Cc1cc(F)ccc1Oc1nnc(C(F)(F)F)c(C)c1C(=O)Nc1ccnc(C(N)=O)c1` [Compound 1408]: the IC50 by setting is: under setting [1], 40 to 200 nM; under setting [2], 40 to 200 nM.

On to `Cc1c(C(F)(F)F)nnc(Oc2ccc(OC(C)C)c(F)c2F)c1C(=O)Nc1cccc(C(N)=O)c1` [Compound 1409], for which the IC50 was not above 20 nM under setting [1] and not above 20 nM under setting [2].

With `Cc1c(C(F)(F)F)nnc(Oc2ccc(OC(C)C)c(F)c2F)c1C(=O)Nc1ccnnc1` [Compound 1412], the IC50 by setting is: under setting [1], not above 20 nM; under setting [2], not above 20 nM.

On to `COc1cc(F)ccc1Oc1nnc(C(F)(F)F)c(C)c1C(=O)Nc1ccc(C(N)=O)cc1` [Compound 1415], for which the IC50 by setting is: under setting [1], not above 20 nM; under setting [2], not above 20 nM.

For the molecule `Cc1cc(F)ccc1Oc1nnc(C(F)(F)F)c(C)c1C(=O)Nc1ccc(C(N)=O)cc1` [Compound 1416], the IC50 was 40 to 200 nM under setting [1] and 40 to 200 nM under setting [2].

(Values after patent US20240336574A1 (LATIGO BIOTHERAPEUTICS, INC., priority 2021, published 2024).)
